From ChEMBL document CHEMBL3600310 (J Med Chem, 2015)
Active and inactive are the calls of the source. No cut-off for these calls is given here.

Tests used:
[1] = target: T1, DNA topoisomerase 1 (Homo sapiens) (UniProt P11387); test: Inhibition of Top1 (unknown origin)-mediated pBR322 DNA cleavage using ethidium bromide staining at 100 uM after 15 mins by electrophoresis analysis
T1 sequence (whole entry): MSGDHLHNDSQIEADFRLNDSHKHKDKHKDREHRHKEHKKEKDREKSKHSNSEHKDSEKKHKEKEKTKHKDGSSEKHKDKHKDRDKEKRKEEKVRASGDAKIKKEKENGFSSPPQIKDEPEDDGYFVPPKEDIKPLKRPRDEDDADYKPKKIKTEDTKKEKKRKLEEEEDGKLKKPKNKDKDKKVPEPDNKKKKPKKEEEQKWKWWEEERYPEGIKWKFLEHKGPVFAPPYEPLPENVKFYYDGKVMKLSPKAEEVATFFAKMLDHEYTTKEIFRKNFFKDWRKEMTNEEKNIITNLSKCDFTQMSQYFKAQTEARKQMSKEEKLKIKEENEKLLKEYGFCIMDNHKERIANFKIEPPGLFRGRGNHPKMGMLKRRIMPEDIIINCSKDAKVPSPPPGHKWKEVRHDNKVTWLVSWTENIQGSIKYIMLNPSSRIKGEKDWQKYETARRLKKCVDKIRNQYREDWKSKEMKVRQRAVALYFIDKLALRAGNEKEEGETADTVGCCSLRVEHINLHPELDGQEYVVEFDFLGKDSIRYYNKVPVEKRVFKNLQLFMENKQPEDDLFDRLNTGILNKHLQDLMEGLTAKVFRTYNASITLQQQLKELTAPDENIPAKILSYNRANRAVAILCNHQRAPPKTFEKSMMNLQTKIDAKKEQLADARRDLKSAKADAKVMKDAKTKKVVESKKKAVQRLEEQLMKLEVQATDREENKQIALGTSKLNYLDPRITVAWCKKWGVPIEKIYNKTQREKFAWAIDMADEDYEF

[2] = target: T1, DNA topoisomerase 1 (Homo sapiens); test: Inhibition of Top1 (unknown origin)-mediated pBR322 DNA cleavage using ethidium bromide staining at 50 uM after 15 mins by electrophoresis analysis
A549 = test: Cytotoxicity against human A549 cells after 72 hrs by MTT assay; assay type: functional, cell-based; conditions: A549, 72 h
HCT-116 = test: Cytotoxicity against human HCT116 cells after 72 hrs by MTT assay; assay type: functional, cell-based; conditions: HCT-116, 72 h
MDA-MB-435 = test: Cytotoxicity against human MDA-MB-435 cells after 72 hrs by MTT assay; assay type: functional, cell-based; conditions: MDA-MB-435, 72 h
[3] = target: DNA topoisomerase 2-alpha (Homo sapiens) (UniProt P11388); test: Inhibition of Top2alpha (unknown origin)-mediated pBR322 DNA cleavage using ethidium bromide staining at 100 uM after 30 mins by electrophoresis analysis
Sequence of DNA topoisomerase 2-alpha (Homo sapiens) (P11388 whole entry): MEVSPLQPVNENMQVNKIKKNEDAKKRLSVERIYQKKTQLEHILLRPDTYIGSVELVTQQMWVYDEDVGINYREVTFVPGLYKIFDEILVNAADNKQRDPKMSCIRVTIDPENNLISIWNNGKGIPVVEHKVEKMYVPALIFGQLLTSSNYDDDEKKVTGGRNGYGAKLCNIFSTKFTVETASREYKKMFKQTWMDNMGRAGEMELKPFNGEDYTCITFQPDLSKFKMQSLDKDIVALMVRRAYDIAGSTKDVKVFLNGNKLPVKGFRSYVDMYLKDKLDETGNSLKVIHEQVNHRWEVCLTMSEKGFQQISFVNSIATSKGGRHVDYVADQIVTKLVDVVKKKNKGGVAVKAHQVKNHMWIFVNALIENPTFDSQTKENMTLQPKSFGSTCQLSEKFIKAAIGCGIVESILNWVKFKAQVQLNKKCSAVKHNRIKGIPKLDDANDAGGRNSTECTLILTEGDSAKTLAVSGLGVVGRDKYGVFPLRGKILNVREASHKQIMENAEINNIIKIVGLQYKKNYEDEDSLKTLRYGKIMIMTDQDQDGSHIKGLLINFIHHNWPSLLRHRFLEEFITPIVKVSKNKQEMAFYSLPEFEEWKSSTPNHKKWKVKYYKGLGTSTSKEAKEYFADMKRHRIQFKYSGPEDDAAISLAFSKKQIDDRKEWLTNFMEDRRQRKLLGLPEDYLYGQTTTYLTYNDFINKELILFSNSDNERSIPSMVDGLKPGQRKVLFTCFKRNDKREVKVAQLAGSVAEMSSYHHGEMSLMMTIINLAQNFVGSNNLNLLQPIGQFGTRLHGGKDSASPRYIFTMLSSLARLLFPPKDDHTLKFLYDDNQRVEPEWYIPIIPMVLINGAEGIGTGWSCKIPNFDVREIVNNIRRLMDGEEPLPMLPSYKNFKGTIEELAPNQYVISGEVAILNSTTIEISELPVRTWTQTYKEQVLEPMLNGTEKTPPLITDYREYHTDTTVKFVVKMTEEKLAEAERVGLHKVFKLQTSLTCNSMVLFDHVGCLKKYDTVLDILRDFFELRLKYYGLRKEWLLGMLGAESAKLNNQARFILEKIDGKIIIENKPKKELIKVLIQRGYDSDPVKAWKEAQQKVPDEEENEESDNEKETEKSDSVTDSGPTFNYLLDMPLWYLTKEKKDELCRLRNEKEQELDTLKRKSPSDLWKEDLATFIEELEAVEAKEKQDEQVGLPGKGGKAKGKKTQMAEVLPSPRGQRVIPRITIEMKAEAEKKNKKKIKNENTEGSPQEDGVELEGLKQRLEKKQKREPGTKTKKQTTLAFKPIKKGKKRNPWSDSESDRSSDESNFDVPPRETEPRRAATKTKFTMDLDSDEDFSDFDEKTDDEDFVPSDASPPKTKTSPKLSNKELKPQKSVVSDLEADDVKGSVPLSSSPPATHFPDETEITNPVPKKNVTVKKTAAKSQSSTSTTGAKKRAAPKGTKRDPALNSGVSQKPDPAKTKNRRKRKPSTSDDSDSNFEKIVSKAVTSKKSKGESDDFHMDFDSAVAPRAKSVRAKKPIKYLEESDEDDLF

| SMILES | inhibition [1] | inhibition [2] | IC50 (A549) | IC50 (HCT-116) | IC50 (MDA-MB-435) | inhibition [3] |
| --- | --- | --- | --- | --- | --- | --- |
| COc1ccc2[nH]c3c(c2c1)CCN1C(=O)c2cc(Br)ccc2SC31 (stereo not given) | Active | Active | 8.2 µM | 2.7 µM | 84.7 µM |  |
| O=C1c2ccccc2S(=O)(=O)C2c3[nH]c4ccc(O)cc4c3CCN12 (stereo not given) |  |  | > 200 µM | 46 µM | > 200 µM | inactive |
| COc1ccc2c(c1)C(=O)N1CCc3c([nH]c4ccc(OC)cc34)C1S2 (stereo not given) | Active | Active | 11.3 µM | 20 µM | 122 µM |  |
| COc1ccc2[nH]c3c(c2c1)CCN1C(=O)c2cc(Cl)ccc2SC31 (stereo not given) | Active | Active | 2.3 µM | 2.7 µM | 44.1 µM |  |
| COc1ccc2[nH]c3c(c2c1)CCN1C(=O)c2cc(F)ccc2SC31 (stereo not given) | Active | Active | 1.2 µM | 6.5 µM | 3.9 µM |  |
| O=C1c2cc(F)ccc2SC2c3[nH]c4ccc(O)cc4c3CCN12 (stereo not given) | Active | Active | 1.2 µM | < 0.003 µM | < 0.003 µM |  |
| O=C1c2cccnc2SC2c3[nH]c4ccccc4c3CCN12 (stereo not given) | Active | Active | > 200 µM | > 200 µM | > 200 µM |  |
| O=C1c2ccccc2S(=O)(=O)C2c3[nH]c4ccccc4c3CCN12 (stereo not given) | Active | Active | > 200 µM | > 200 µM | > 200 µM |  |
| O=C1c2cc(Cl)ccc2SC2c3[nH]c4ccccc4c3CCN12 (stereo not given) | Active | Active | 2.1 µM | 29.1 µM | 38.8 µM |  |
| CN1c2ccn(C)c2C(=O)N2CCc3c([nH]c4ccc(O)cc34)C21 (stereo not given) |  |  | 5 µM | 15.4 µM | 11.7 µM |  |
| COc1ccc2[nH]c3c(c2c1)CCN1C(=O)c2sccc2N(C)C31 (stereo not given) |  |  | > 200 µM | > 200 µM | > 200 µM |  |
| O=C1c2cccc(O)c2OC2c3[nH]c4ccc(O)cc4c3CCN12 (stereo not given) |  |  | > 200 µM | 53.4 µM | 66.2 µM |  |
| O=C1c2cc(F)ccc2OC2c3[nH]c4ccccc4c3CCN12 (stereo not given) |  |  | 6.6 µM | 5.8 µM | 46.1 µM |  |
| Cc1ccc2c(c1)OC1c3[nH]c4ccccc4c3CCN1C2=S (stereo not given) |  |  | 65.2 µM | 44.4 µM | 60.3 µM |  |
| CN1c2ccccc2C(=O)N2CCCc3c([nH]c4ccc(O)cc34)C21 (stereo not given) |  |  | 32.4 µM | 59.8 µM | 69.2 µM |  |
| COc1ccc2[nH]c3c(c2c1)CCN1C(=O)c2cscc2N(C)C31 (stereo not given) |  |  | 32.3 µM | 94.9 µM | 49 µM |  |
| COc1ccc2c(c1)OC1c3[nH]c4ccccc4c3CCN1C2=O (stereo not given) |  |  | 174 µM | 71.2 µM | 52.3 µM |  |
| CC(=O)Nc1ccc2c(c1)C(=O)N1CCc3c([nH]c4ccccc34)C1O2 (stereo not given) |  |  | 20.1 µM | 5.8 µM | 19.6 µM |  |
| CCCN(CCC)c1ccc2c(c1)C(=O)N1CCc3c([nH]c4ccccc34)C1O2 (stereo not given) |  |  | > 200 µM | 2.3 µM | > 200 µM |  |
| O=C1c2cc(F)ccc2SC2c3[nH]c4ccccc4c3CCN12 (stereo not given) | Active | Active | > 200 µM | > 200 µM | > 200 µM |  |
| O=C1c2ccc(Cl)cc2OC2c3[nH]c4ccc(O)cc4c3CCN12 (stereo not given) |  |  | 10.6 µM | 18.7 µM | 7.1 µM |  |

| SMILES | inhibition [1] | inhibition [2] | IC50 (A549) | IC50 (HCT-116) | IC50 (MDA-MB-435) | inhibition [3] |
| --- | --- | --- | --- | --- | --- | --- |
| O=C1c2ccc(C(F)(F)F)cc2OC2c3[nH]c4ccccc4c3CCN12 (stereo not given) |  |  | 25.8 µM | 23.3 µM | 21.9 µM |  |
| O=C1c2cc(Cl)cc(Cl)c2OC2c3[nH]c4ccc(O)cc4c3CCN12 (stereo not given) |  |  | 8.6 µM | 7 µM | 0.3 µM |  |
| Cc1cccc2c1C(=O)N1CCc3c([nH]c4ccccc34)C1O2 (stereo not given) |  |  | > 200 µM | 38.1 µM | > 200 µM |  |
| COc1ccc2[nH]c3c(c2c1)CCN1C(=O)c2cccc(OC)c2OC31 (stereo not given) |  |  | > 200 µM | 52.7 µM | 80.1 µM |  |
| O=C1c2cc(Cl)ccc2OC2c3[nH]c4ccccc4c3CCN12 (stereo not given) |  |  | 0.05 µM | 1.4 µM | 0.6 µM |  |
| COc1ccc2[nH]c3c(c2c1)CCN1C(=O)c2cc([N+](=O)[O-])ccc2OC31 (stereo not given) |  |  | > 200 µM | > 200 µM | > 200 µM |  |
| COc1ccc2[nH]c3c(c2c1)CCN1C(=O)c2ccc(C)cc2OC31 (stereo not given) |  |  | > 200 µM | > 200 µM | 198 µM |  |
| COc1ccc2[nH]c3c(c2c1)CCN1C(=O)c2ccc(C(F)(F)F)cc2OC31 (stereo not given) |  |  | 50.5 µM | 31.7 µM | 26.2 µM |  |
| O=C1c2cc(I)cc(I)c2OC2c3[nH]c4ccccc4c3CCN12 (stereo not given) |  |  | > 200 µM | 24.4 µM | > 200 µM |  |
| S=C1c2ccccc2OC2c3[nH]c4ccccc4c3CCN12 (stereo not given) |  |  | 7.7 µM | 5.6 µM | 4.8 µM |  |
| O=C1c2cc(O)ccc2OC2c3[nH]c4ccccc4c3CCN12 (stereo not given) |  |  | 16.2 µM | 1.9 µM | 11.5 µM |  |
| COc1ccc2oc3c(c2c1)CCCN1C(=O)c2ccccc2N(C)C31 (stereo not given) |  |  | 6.2 µM | 5.3 µM | 28.4 µM |  |
| COc1ccc2c(c1)C(=O)N1CCc3c([nH]c4ccc(OC)cc34)C1O2 (stereo not given) |  |  | 9.5 µM | 23.7 µM | 10.1 µM |  |
| O=C1c2cc(Br)ccc2OC2c3[nH]c4ccccc4c3CCN12 (stereo not given) |  |  | 1.6 µM | 13.8 µM | 3.7 µM |  |
| O=C1c2cc(Cl)cc(Cl)c2OC2c3[nH]c4ccccc4c3CCN12 (stereo not given) |  |  | 1.8 µM | 6.7 µM | 14.2 µM |  |
| CCNc1ccc2c(c1)C(=O)N1CCc3c([nH]c4ccccc34)C1O2 (stereo not given) |  |  | > 200 µM | 39.4 µM | > 200 µM |  |
| CN1c2ccn(C)c2C(=O)N2CCc3c([nH]c4ccccc34)C21 (stereo not given) |  |  | > 200 µM | 76.5 µM | 207 µM |  |
| COc1ccc2[nH]c3c(c2c1)CCN1C(=O)c2ccc(F)cc2OC31 (stereo not given) |  |  | > 200 µM | 37.1 µM | 157 µM |  |
| O=C1c2cc3ccccc3cc2OC2c3[nH]c4ccc(O)cc4c3CCN12 (stereo not given) |  |  | 5.6 µM | 5.1 µM | 5.1 µM |  |
| O=C1c2c(F)cccc2OC2c3[nH]c4ccccc4c3CCN12 (stereo not given) |  |  | 35.1 µM | 31 µM | 71 µM |  |
| CC(C)C(=O)Nc1ccc2c(c1)C(=O)N1CCc3c([nH]c4ccccc34)C1O2 (stereo not given) |  |  | 28.4 µM | 9.4 µM | 11.7 µM |  |
